Laboratory results taken from patent publication US20220356186A1, “PERK INHIBITING PYRROLOPYRIMIDINE COMPOUNDS” (HiberCell, Inc., priority 2019, published 2022).
Read-outs that look alike come from different tables or passages of the source.

How the values were obtained:
[1] = tested on: GFP-eIF2α in HEK293 cells; assay: PERK cellular assay, TR-FRET in HEK293-EGFP-eIF2a cells after tunicamycin-induced ER stress; type: cell-based; details: HEK293-EGFP-eIF2a cells, tunicamycin 2 hours, read-out: Cellular eIF2α IC50
Procedure, shortened: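 Compounds were added 30 min before a 2 h tunicamycin ([…]) challenge of lentivirally made GFP-eIF2α HEK293 cells, 5000/well; lysate TR-FRET ratio was the read-out.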

[2] = target: T1, EIF2AK3 (PERK) catalytic domain (amino acids 536-1116) (Homo sapiens, UniProt Q9NZJ5); assay: PERK in vitro activity assay (isolated), TR-FRET kinase assay; type: biochemical; details: isolated PERK enzyme, 1.5 μM ATP; read-out: Biochemical IC50
T1 construct: EIF2AK3 (PERK) catalytic domain (amino acids 536-1116)
T1 sequence (Q9NZJ5 536-1116): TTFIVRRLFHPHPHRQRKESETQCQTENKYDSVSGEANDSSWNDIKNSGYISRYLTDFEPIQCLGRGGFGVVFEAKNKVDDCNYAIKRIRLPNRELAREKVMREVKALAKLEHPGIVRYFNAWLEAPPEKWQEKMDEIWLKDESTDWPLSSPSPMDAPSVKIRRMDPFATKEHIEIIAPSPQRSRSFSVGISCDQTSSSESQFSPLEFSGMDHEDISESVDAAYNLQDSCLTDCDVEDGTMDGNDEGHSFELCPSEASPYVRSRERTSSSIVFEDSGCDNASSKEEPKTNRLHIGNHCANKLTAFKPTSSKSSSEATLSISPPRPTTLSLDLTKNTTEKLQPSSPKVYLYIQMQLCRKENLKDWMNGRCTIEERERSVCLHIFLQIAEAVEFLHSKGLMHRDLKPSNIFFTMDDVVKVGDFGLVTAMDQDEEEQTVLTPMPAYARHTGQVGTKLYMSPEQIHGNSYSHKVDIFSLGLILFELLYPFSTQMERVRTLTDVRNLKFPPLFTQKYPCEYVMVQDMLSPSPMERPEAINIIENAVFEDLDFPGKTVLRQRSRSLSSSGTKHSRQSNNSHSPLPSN
Procedure, shortened: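 TR-FRET read-out: after EDTA stop (10 mM final), Tb-labelled phospho-eIF2a antibody (2 nM) for 90 min; IC50 via 4-parameter nonlinear fit. Reaction: PERK aa 536-1116, GFP-eIF2a 100-200 nM, HEPES pH 7.5 with MgCl2/EGTA/Brij-35, 45 min, room temperature, started by enzyme.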

Row | SMILES | IC50 [2] [µM] | IC50 [1] [µM] | IC50 ([1]; Homo sapiens, HEK293, 2 h) [µM]
1 | Cc1nc(N)c2c(-c3ccc(NC(=O)C(O)c4cc(F)cc(C(F)(F)F)c4)c(F)c3F)cn(C)c2n1 (single isomer, unassigned) [Example 115, N-(4-(4-amino-2,7-dimethyl-7H-pyrrolo[2,3-d]pyrimidin-5-yl)-2,3-difluorophenyl)-2-(3-fluoro-5-(trifluoromethyl)phenyl)-2-hydroxyacetamide] | 0.001 to 0.025 | 0.001 to 0.025 | –
2 | Cc1cccc(CC(=O)Nc2ccc(-c3cn(C)c4nc(C)nc(N)c34)c(C)c2)n1 [Example 135, N-(4-(4-amino-2,7-dimethyl-7H-pyrrolo[2,3-d]pyrimidin-5-yl)-3-methylphenyl)-2-(6-methylpyridin-2-yl)acetamide] | 0.026 to 0.05 | – | 0.251 to 0.5
3 | Cc1cc(NC(=O)Cc2cccc(C)c2C)ccc1-c1cn(C)c2ncnc(N)c12 [Example 162, N-(4-(4-amino-7-methyl-7H-pyrrolo[2,3-d]pyrimidin-5-yl)-3-methylphenyl)-2-(2,3-dimethylphenyl)acetamide] | 0.001 to 0.025 | – | 0.051 to 0.1
4 | CCc1cccc(C(O)C(=O)Nc2ccc(-c3cn(C)c4nc(C)nc(N)c34)c(C)c2)c1 (stereo not drawn) [Example 44, N-(4-(4-amino-2,7-dimethyl-7H-pyrrolo[2,3-d]pyrimidin-5-yl)-3-methylphenyl)-2-(3-ethylphenyl)-2-hydroxyacetamide] | 0.101 to 0.25 | 1 to 2 | –
5 | Cc1cc(NC(=O)N(C)c2ccccc2)ccc1-c1cn(C)c2ncnc(N)c12 [Example 171, 3-(4-(4-amino-7-methyl-7H-pyrrolo[2,3-d]pyrimidin-5-yl)-3-methylphenyl)-1-methyl-1-phenylurea] | 0.101 to 0.25 | – | 1 to 2
6 | Cc1nc(N)c2c(-c3cnc(NC(=O)C(O)c4cccc(C(F)(F)F)c4)cc3C)cn(C)c2n1 (stereo not drawn) [Example 131, N-(5-(4-amino-2,7-dimethyl-7H-pyrrolo[2,3-d]pyrimidin-5-yl)-4-methylpyridin-2-yl)-2-hydroxy-2-(3-(trifluoromethyl)phenyl)acetamide] | 0.026 to 0.05 | 0.251 to 0.5 | –
7 | Cc1cc(NC(=O)C(N)c2ccccc2)ccc1-c1cn(C)c2ncnc(N)c12 (stereo not drawn) [Example 27, 2-amino-N-(4-(4-amino-7-methyl-7H-pyrrolo[2,3-d]pyrimidin-5-yl)-3-methylphenyl)-2-phenylacetamide] | 0.101 to 0.25 | – | 0.251 to 0.5
8 | Cc1nc(N)c2c(-c3ccc(NC(=O)C(O)c4cccc(F)c4)c(F)c3)cn(C)c2n1 (stereo not drawn) [Example 89, N-(4-(4-amino-2,7-dimethyl-7H-pyrrolo[2,3-d]pyrimidin-5-yl)-2-fluorophenyl)-2-(3-fluorophenyl)-2-hydroxyacetamide] | 0.251 to 0.5 | 2 to 3 | –

Continued, in another order:

Row | IC50 [2] [µM] | SMILES | IC50 [1] [µM] | IC50 ([1]; Homo sapiens, HEK293, 2 h) [µM]
9 | 0.026 to 0.05 | Cc1nc(N)c2c(-c3ccc(NC(=O)C(O)c4cccc(F)c4)cc3)cn(C)c2n1 (stereo not drawn) [Example 24, N-(4-(4-amino-2,7-dimethyl-7H-pyrrolo[2,3-d]pyrimidin-5-yl)phenyl)-2-(3-fluorophenyl)-2-hydroxyacetamide] | 1 to 2 | –
10 | 0.051 to 0.1 | Cc1nc(N)c2c(-c3ccc(NC(=O)C(O)c4cccc(F)c4)cc3C(F)(F)F)cn(C)c2n1 (stereo not drawn) [Example 20, N-(4-(4-amino-2,7-dimethyl-7H-pyrrolo[2,3-d]pyrimidin-5-yl)-3-(trifluoromethyl)phenyl)-2-(3-fluorophenyl)-2-hydroxyacetamide] | 1 to 2 | –
11 | 0.026 to 0.05 | Cc1nc(N)c2c(-c3ccc(NC(=O)C(O)c4ccccc4C(F)(F)F)cc3F)cn(C)c2n1 (stereo not drawn) [Example 77, N-(4-(4-amino-2,7-dimethyl-7H-pyrrolo[2,3-d]pyrimidin-5-yl)-3-fluorophenyl)-2-hydroxy-2-(2-(trifluoromethyl)phenyl)acetamide] | – | 0.501 to 1
12 | 0.101 to 0.25 | Cc1nc(N)c2c(-c3ccc(NC(=O)C(O)c4cccc(F)c4)cc3Cl)cn(C)c2n1 (stereo not drawn) [Example 91, N-(4-(4-amino-2,7-dimethyl-7H-pyrrolo[2,3-d]pyrimidin-5-yl)-3-chlorophenyl)-2-(3-fluorophenyl)-2-hydroxyacetamide] | 0.501 to 1 | –
